From paper PMC4832243, “Discovery of Potent VEGFR-2 Inhibitors based on Furopyrimidine and Thienopyrimidne Scaffolds as Cancer Targeting Agents” (Scientific Reports, 2016)

Legend:
VEGFR-2 (KDR) = target: T1, VEGFR-2 (KDR) (Homo sapiens, UniProt P35968); experiment: In vitro VEGFR-2 tyrosine kinase activity (Kinase-Glo Plus luminescence, BPS Bioscience); format: biochemical; conditions: for inhibition at 10 µM: single dose concentration of 10 μM
T1 construct: purchased BPS Bioscience 40301

HL-60(TB) = experiment: NCI 60 cell line panel (SRB), HL-60(TB); format: cell-based; conditions: Homo sapiens, Leukemia, single dose of 10 μM, read-out: Cell Growth Percent
MOLT-4 = experiment: NCI 60 cell line panel (SRB), MOLT-4; format: cell-based; conditions: Homo sapiens; MOLT-4, Leukemia; single dose of 10 μM; read-out: Cell Growth Percent
RPMI-8226 = experiment: NCI 60 cell line panel (SRB), RPMI-8226; format: cell-based; conditions: Homo sapiens; RPMI-8226, Leukemia; single dose of 10 μM; read-out: Cell Growth Percent
SR = experiment: NCI 60 cell line panel (SRB), SR; format: cell-based; conditions: Homo sapiens, Leukemia, single dose of 10 μM, read-out: Cell Growth Percent
A549/ATCC = experiment: NCI 60 cell line panel (SRB), A549/ATCC; format: cell-based; conditions: Homo sapiens, Non-Small Cell Lung Cancer, single dose of 10 μM, read-out: Cell Growth Percent
HOP-92 = experiment: NCI 60 cell line panel (SRB), HOP-92; format: cell-based; conditions: Homo sapiens; HOP-92, Non-Small Cell Lung Cancer; single dose of 10 μM; read-out: Cell Growth Percent
NCI-H460 = experiment: NCI 60 cell line panel (SRB), NCI-H460; format: cell-based; conditions: Homo sapiens; NCI-H460, Non-Small Cell Lung Cancer; single dose of 10 μM; read-out: Cell Growth Percent
HCT-15 = experiment: NCI 60 cell line panel (SRB), HCT-15; format: cell-based; conditions: Homo sapiens; HCT-15, Colon Cancer; single dose of 10 μM; read-out: Cell Growth Percent
HT29 = experiment: NCI 60 cell line panel (SRB), HT29; format: cell-based; conditions: Homo sapiens, HT-29; HT29, Colon Cancer; single dose of 10 μM; read-out: Cell Growth Percent
KM12 = experiment: NCI 60 cell line panel (SRB), KM12; format: cell-based; conditions: Homo sapiens; KM12, Colon Cancer; single dose of 10 μM; read-out: Cell Growth Percent
SF-268 = experiment: NCI 60 cell line panel (SRB), SF-268; format: cell-based; conditions: Homo sapiens; SF-268, CNS Cancer; single dose of 10 μM; read-out: Cell Growth Percent
SNB-75 = experiment: NCI 60 cell line panel (SRB), SNB-75; format: cell-based; conditions: Homo sapiens; SNB-75, CNS Cancer; single dose of 10 μM; read-out: Cell Growth Percent
LOX IMVI = experiment: NCI 60 cell line panel (SRB), LOX IMVI; format: cell-based; conditions: Homo sapiens, Melanoma, single dose of 10 μM, read-out: Cell Growth Percent
MALME-3M = experiment: NCI 60 cell line panel (SRB), MALME-3M; format: cell-based; conditions: Homo sapiens, Melanoma, single dose of 10 μM, read-out: Cell Growth Percent
M14 = experiment: NCI 60 cell line panel (SRB), M14; format: cell-based; conditions: Homo sapiens; M14, Melanoma; single dose of 10 μM; read-out: Cell Growth Percent
SK-MEL-28 = experiment: NCI 60 cell line panel (SRB), SK-MEL-28; format: cell-based; conditions: Homo sapiens; SK-MEL-28, Melanoma; single dose of 10 μM; read-out: Cell Growth Percent
SK-MEL-5 = experiment: NCI 60 cell line panel (SRB), SK-MEL-5; format: cell-based; conditions: Homo sapiens; SK-MEL-5, Melanoma; single dose of 10 μM; read-out: Cell Growth Percent
UACC-257 = experiment: NCI 60 cell line panel (SRB), UACC-257; format: cell-based; conditions: Homo sapiens; UACC-257, Melanoma; single dose of 10 μM; read-out: Cell Growth Percent
UACC-62 = experiment: NCI 60 cell line panel (SRB), UACC-62; format: cell-based; conditions: Homo sapiens; UACC-62, Melanoma; single dose of 10 μM; read-out: Cell Growth Percent
IGROV1 = experiment: NCI 60 cell line panel (SRB), IGROV1; format: cell-based; conditions: Homo sapiens, IGROV-1; IGROV1, Ovarian Cancer; single dose of 10 μM; read-out: Cell Growth Percent
OVCAR-4 = experiment: NCI 60 cell line panel (SRB), OVCAR-4; format: cell-based; conditions: Homo sapiens; OVCAR-4, Ovarian Cancer; single dose of 10 μM; read-out: Cell Growth Percent
OVCAR-5 = experiment: NCI 60 cell line panel (SRB), OVCAR-5; format: cell-based; conditions: Homo sapiens; OVCAR-5, Ovarian Cancer; single dose of 10 μM; read-out: Cell Growth Percent
OVCAR-8 = experiment: NCI 60 cell line panel (SRB), OVCAR-8; format: cell-based; conditions: Homo sapiens; OVCAR-8, Ovarian Cancer; single dose of 10 μM; read-out: Cell Growth Percent
NCI/ADR-RES = experiment: NCI 60 cell line panel (SRB), NCI/ADR-RES; format: cell-based; conditions: Homo sapiens, Ovarian Cancer, single dose of 10 μM, read-out: Cell Growth Percent
SK-OV-3 = experiment: NCI 60 cell line panel (SRB), SK-OV-3; format: cell-based; conditions: Homo sapiens; SK-OV-3, Ovarian Cancer; single dose of 10 μM; read-out: Cell Growth Percent
A498 = experiment: NCI 60 cell line panel (SRB), A498; format: cell-based; conditions: Homo sapiens; A498, Renal Cancer; single dose of 10 μM; read-out: Cell Growth Percent
ACHN = experiment: NCI 60 cell line panel (SRB), ACHN; format: cell-based; conditions: Homo sapiens, Renal Cancer, single dose of 10 μM, read-out: Cell Growth Percent
RXF 393 = experiment: NCI 60 cell line panel (SRB), RXF 393; format: cell-based; conditions: Homo sapiens; RXF 393, Renal Cancer; single dose of 10 μM; read-out: Cell Growth Percent
SN12C = experiment: NCI 60 cell line panel (SRB), SN12C; format: cell-based; conditions: Homo sapiens, Renal Cancer, single dose of 10 μM, read-out: Cell Growth Percent
DU-145 = experiment: NCI 60 cell line panel (SRB), DU-145; format: cell-based; conditions: Homo sapiens; DU-145, Prostate Cancer; single dose of 10 μM; read-out: Cell Growth Percent
HS 578T = experiment: NCI 60 cell line panel (SRB), HS 578T; format: cell-based; conditions: Homo sapiens, Breast Cancer, single dose of 10 μM, read-out: Cell Growth Percent
T-47D = experiment: NCI 60 cell line panel (SRB), T-47D; format: cell-based; conditions: Homo sapiens, T47D, Breast Cancer, single dose of 10 μM, read-out: Cell Growth Percent
MDA-MB-468 = experiment: NCI 60 cell line panel (SRB), MDA-MB-468; format: cell-based; conditions: Homo sapiens; MDA-MB-468, Breast Cancer; single dose of 10 μM; read-out: Cell Growth Percent

T1 sequence (P35968 20-1356): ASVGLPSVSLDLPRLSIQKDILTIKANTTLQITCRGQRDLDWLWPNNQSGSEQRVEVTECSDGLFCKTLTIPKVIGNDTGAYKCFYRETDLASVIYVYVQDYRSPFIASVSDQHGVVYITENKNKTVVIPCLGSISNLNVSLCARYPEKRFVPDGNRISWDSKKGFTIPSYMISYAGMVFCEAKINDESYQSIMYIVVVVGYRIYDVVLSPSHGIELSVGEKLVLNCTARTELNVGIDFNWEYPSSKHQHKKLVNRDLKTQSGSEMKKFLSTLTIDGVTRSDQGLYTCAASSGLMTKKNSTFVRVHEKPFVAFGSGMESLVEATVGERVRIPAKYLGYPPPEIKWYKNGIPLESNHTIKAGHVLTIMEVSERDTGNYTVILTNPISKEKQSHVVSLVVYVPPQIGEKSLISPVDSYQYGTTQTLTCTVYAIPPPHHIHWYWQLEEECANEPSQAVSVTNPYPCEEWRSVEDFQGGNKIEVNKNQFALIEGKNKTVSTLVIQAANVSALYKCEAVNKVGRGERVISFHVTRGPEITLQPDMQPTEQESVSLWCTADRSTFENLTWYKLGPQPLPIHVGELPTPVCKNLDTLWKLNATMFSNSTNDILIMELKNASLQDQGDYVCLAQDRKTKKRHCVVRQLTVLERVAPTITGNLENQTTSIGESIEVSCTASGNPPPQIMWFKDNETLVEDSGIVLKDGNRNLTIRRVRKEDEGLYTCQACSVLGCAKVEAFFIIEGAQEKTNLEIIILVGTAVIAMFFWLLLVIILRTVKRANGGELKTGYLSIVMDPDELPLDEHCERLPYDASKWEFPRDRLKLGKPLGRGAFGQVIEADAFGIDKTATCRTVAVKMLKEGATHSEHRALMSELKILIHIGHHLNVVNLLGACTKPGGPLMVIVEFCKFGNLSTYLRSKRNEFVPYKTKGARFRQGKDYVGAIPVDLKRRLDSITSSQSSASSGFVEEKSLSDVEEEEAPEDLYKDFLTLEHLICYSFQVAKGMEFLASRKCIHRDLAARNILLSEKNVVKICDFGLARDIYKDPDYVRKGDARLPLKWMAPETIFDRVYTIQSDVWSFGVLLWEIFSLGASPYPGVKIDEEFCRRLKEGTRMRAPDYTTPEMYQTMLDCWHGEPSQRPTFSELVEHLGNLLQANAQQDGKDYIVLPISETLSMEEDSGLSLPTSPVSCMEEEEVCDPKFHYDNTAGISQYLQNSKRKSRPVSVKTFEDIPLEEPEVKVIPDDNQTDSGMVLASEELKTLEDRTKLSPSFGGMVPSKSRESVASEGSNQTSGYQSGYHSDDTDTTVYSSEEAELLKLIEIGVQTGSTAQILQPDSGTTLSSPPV

SMILES	inhibition at 10 µM (VEGFR-2 (KDR)) [%]	activity at 10 µM (HL-60(TB)) [%]	activity at 10 µM (MOLT-4) [%]	activity at 10 µM (RPMI-8226) [%]	activity at 10 µM (SR) [%]	activity at 10 µM (A549/ATCC) [%]	activity at 10 µM (HOP-92) [%]	activity at 10 µM (NCI-H460) [%]	activity at 10 µM (HCT-15) [%]	activity at 10 µM (HT29) [%]	activity at 10 µM (KM12) [%]	activity at 10 µM (SF-268) [%]	activity at 10 µM (SNB-75) [%]	activity at 10 µM (LOX IMVI) [%]	activity at 10 µM (MALME-3M) [%]	activity at 10 µM (M14) [%]	activity at 10 µM (SK-MEL-28) [%]	activity at 10 µM (SK-MEL-5) [%]	activity at 10 µM (UACC-257) [%]	activity at 10 µM (UACC-62) [%]	further results
CCOC(=O)c1c(C)oc2ncnc(Nc3ccc(C(=O)Nc4ccc(OC)cc4)cc3)c12 [Compound 14b]	8	88.6	92.3	91.3	74.6	93.3	78.8	97	88.5	81.1	96.1	101	87.2	93.2	120	101	95.2	87.9	94.7	93.4	activity at 10 µM (IGROV1): 108%; activity at 10 µM (OVCAR-4): 95.6%; activity at 10 µM (OVCAR-5): 114%; activity at 10 µM (OVCAR-8): 98.9%; activity at 10 µM (NCI/ADR-RES): 88.7%; activity at 10 µM (SK-OV-3): 94.1%; activity at 10 µM (A498): 75.3%; activity at 10 µM (ACHN): 95.2%; activity at 10 µM (RXF 393): 92%; activity at 10 µM (SN12C): 103%; activity at 10 µM (DU-145): 97.1%; activity at 10 µM (HS 578T): 83.7%; activity at 10 µM (T-47D): 91%; activity at 10 µM (MDA-MB-468): 102%
O=C(Nc1ccccc1)Nc1ccc(Oc2ncnc3sc4c(c23)CCCC4)cc1 [Compound 21a]	> 70	102	54	50.5	24.3	67.8	78.4	70.7	49.2	74.3	46.4	76.3	45.6	69.5	84.2	56.5	86.6	67.9	90.4	66.5	IC50 (VEGFR-2 (KDR); 5 concentrations 1 nM - 10 μM): 454 nM; activity at 10 µM (IGROV1): 87.2%; activity at 10 µM (OVCAR-4): 55.1%; activity at 10 µM (OVCAR-5): 107%; activity at 10 µM (OVCAR-8): 93.5%; activity at 10 µM (NCI/ADR-RES): 63.2%; activity at 10 µM (SK-OV-3): 72.2%; activity at 10 µM (A498): 56.7%; activity at 10 µM (ACHN): 78.7%; activity at 10 µM (RXF 393): 72%; activity at 10 µM (SN12C): 83.3%; activity at 10 µM (DU-145): 86.1%; activity at 10 µM (HS 578T): 73.6%; activity at 10 µM (T-47D): 37.9%; activity at 10 µM (MDA-MB-468): 53.6%
